Data as given in US5349127A, “Expression of herbicide metabolizing cytochromes P450” (priority 1992, dated 1994).

Assays:
[1] = tested on: Arabidopsis thaliana seedlings; test: Seed germination assay of transgenic Arabidopsis (Example 26); format: in vivo; conditions: Kanamycin 50 mg/l
Protocol: T2 seed was harvested from selected putative transformants and sown on GM medium containing 50 mg/l kanamycin and that containing 5 ppb 10015. Plates were sealed with filter tape, cold treated for 2 or more days at 4° C., and then incubated for 10 to 20 days at 23° C. under constant illumination as described above. Seedlings were scored as resistant (green, true leaves develop) and sensitive (no true leaves develop). […] The percent of resistant seedlings is inversely proportional with the two selections. Kanamycin is a positive selection for those seedlings that carry the foreign DNA.
Selected T2 seedlings that were kanamycin resistant were transplanted to soil and were grown to maturity at 21° C. daytime (14 hours) 18° C. nighttime (10 hours) at 65-80% relative humidity. T3 seed was collected, sterilized, and germinated on GM medium containing 50 mg/l kanamycin and that containing 5 ppb 10015. Plates were sealed with filter tape, cold treated for 2 or more days at 4° C., and then incubated for 10 to 20 days at 23° C. under constant illumination as described above. Two of the six plants produced seed that was 100% resistant to kanamycin and 100% sensitive to 10015; they are homozygous for the inserted DNA. The other four parents are heterozygous and show an inverse proportion of kanamycin and 10015 resistant seedlings. […] Therefore, seedlings expressing the P450SU1 gene can be negatively selected.
Germination assays of homozygous seed on various concentrations of 10015 were performed to assay the relative sensitivity to 10015 produced by the three different promoters and between independent transformants. Seed was sterilized, sown on GM medium with 0, 0.5, 1, 2, 5, 10 and 20 ppb 10015, incubated, and scored as described above. In addition, seedlings are rated on a scale of one to three for the amount of growth.
Over 500 seed that are homozygous for the P450SU1 coding region were sown on the same plates. The plates were sealed, cold-treated, and incubated as previously described. […] Wild type seedlings were unaffected by the dying transformed seedlings. In addition, when greater than 10,000 seed of a homozygous Cab-SU111 plant was sown on GM medium with 10 ppb 10015, then cold-treated and incubated as described above, eighteen seedlings were resistant to 10015 and were unaffected by neighboring seedlings.

[2] = tested on: transformed tobacco seedlings; test: Kanamycin resistance of progeny of transformed tobacco (Example 22); format: in vivo, Nicotiana tabacum
Protocol: Growth medium was prepared from Murishige minimal organics medium (Gibco Laboratories, Grand Island, N.Y.), 8 g/l agar, supplemented with T vitamins (50 ppb biotin, 0.5 ppm pyridoxine HCl, 0.5 ppm thiamine HCl, 5 ppm nicotinic acid, 0.5 ppm folic acid, 2 ppm glycine, 100 ppm myo-inositol), sterilized and placed into sterile PlantCon plant tissue culture containers (Flow Laboratories, McLean, Va.). Tobacco seed obtained from the self-pollination of the primary transformants was surface sterilized by a treatment of not more than 30 min in 20% chlorine bleach, 0.1% sodium dodecyl sulfate, followed by rinsing in distilled water, and placed on the surface of the medium in the sterile containers. Following this treatment, the seed was allowed to germinate and grow under illumination (100 microeinsteins·m^-2 ·s^-1), at 22° C.
The number of loci where t-DNA was incorporated into the genome of the tobacco was determined by segregation analysis of kanamycin resistance in the next generation of progeny. Seed from the self pollination of the primary transformants was grown as described above on medium supplemented with 200 ppm kanamycin sulfate (Sigma). After 21 days, resistant (transformed) plants were unaffected compared to control plants, whereas sensitive plants were smaller, partially chlorotic, and poorly rooted. Determination of the number of genetic loci of the primary transformants was based on the segregation of the kanamycin resistance trait.
Copy number determination is from kanamycin sensitive segregation analysis of about 100 seed.

`NC[C@H]1O[C@H](O[C@H]2[C@H](O)[C@@H](O[C@H]3O[C@H](CO)[C@@H](O)[C@H](N)[C@H]3O)[C@H](N)C[C@@H]2N)[C@H](O)[C@@H](O)[C@@H]1O` [Kanamycin, reference compound] was tested. Which “#R number of resistant seedlings” value ([1]; T2 seed ID 12-1, pCab-SU111) did it give?
Its value is 11.

What about the “#S number of sensitive seedlings” value ([1]; T2 seed ID 12-1, pCab-SU111) of the same molecule?
Its value is 6.

And the “% R percent of seedlings which are resistant” value (shortened to “% R percent”) ([1]; T2 seed ID 12-1, pCab-SU111)?
The value was 65%.

What about the “#R number of resistant seedlings” value ([1]; T2 seed ID 12-2, pCab-SU111) of the same molecule?
Its value is 0.

And the “#S number of sensitive seedlings” value ([1]; T2 seed ID 12-2, pCab-SU111)?
Its value is 12.

What about the “% R percent” value ([1]; T2 seed ID 12-2, pCab-SU111) of the same molecule?
Its value is 0%.

What about the “#R number of resistant seedlings” value ([1]; T2 seed ID 12-4, pCab-SU111) of the same molecule?
The value was 13.

What about the “#S number of sensitive seedlings” value ([1]; T2 seed ID 12-4, pCab-SU111) of the same molecule?
Its value is 18.

And the “% R percent” value ([1]; T2 seed ID 12-4, pCab-SU111)?
Its value is 42%.

And the “#R number of resistant seedlings” value ([1]; T2 seed ID 12-5, pCab-SU111)?
The value was 0.

What about the “#S number of sensitive seedlings” value ([1]; T2 seed ID 12-5, pCab-SU111) of the same molecule?
The value was 20.

What about the “% R percent” value ([1]; T2 seed ID 12-5, pCab-SU111) of the same molecule?
The value was 0%.

What about the “#R number of resistant seedlings” value ([1]; T2 seed ID 12-6, pCab-SU111) of the same molecule?
The value was 15.

What about the “#S number of sensitive seedlings” value ([1]; T2 seed ID 12-6, pCab-SU111) of the same molecule?
The value was 9.

And the “% R percent” value ([1]; T2 seed ID 12-6, pCab-SU111)?
The value was 62%.

And the “#R number of resistant seedlings” value ([1]; T2 seed ID 12-7, pCab-SU111)?
Its value is 21.

And the “#S number of sensitive seedlings” value ([1]; T2 seed ID 12-7, pCab-SU111)?
The value was 7.

What about the “% R percent” value ([1]; T2 seed ID 12-7, pCab-SU111) of the same molecule?
Its value is 75%.

What about the “#R number of resistant seedlings” value ([1]; T2 seed ID 12-8, pCab-SU111) of the same molecule?
The value was 6.

And the “#S number of sensitive seedlings” value ([1]; T2 seed ID 12-8, pCab-SU111)?
The value was 5.

And the “% R percent” value ([1]; T2 seed ID 12-8, pCab-SU111)?
Its value is 55%.

What about the “#R number of resistant seedlings” value ([1]; T2 seed ID 12-9, pCab-SU111) of the same molecule?
The value was 13.

What about the “#S number of sensitive seedlings” value ([1]; T2 seed ID 12-9, pCab-SU111) of the same molecule?
The value was 3.

What about the “% R percent” value ([1]; T2 seed ID 12-9, pCab-SU111) of the same molecule?
The value was 81%.

And the “#R number of resistant seedlings” value ([1]; T2 seed ID 12-10, pCab-SU111)?
Its value is 0.

And the “#S number of sensitive seedlings” value ([1]; T2 seed ID 12-10, pCab-SU111)?
Its value is 21.

And the “% R percent” value ([1]; T2 seed ID 12-10, pCab-SU111)?
The value was 0%.

And the “#R number of resistant seedlings” value ([1]; T2 seed ID 12-11, pCab-SU111)?
Its value is 0.

And the “#S number of sensitive seedlings” value ([1]; T2 seed ID 12-11, pCab-SU111)?
Its value is 9.

What about the “% R percent” value ([1]; T2 seed ID 12-11, pCab-SU111) of the same molecule?
The value was 0%.

What about the “#R number of resistant seedlings” value ([1]; T3 seed ID 12-1-1, pCab-SU111) of the same molecule?
Its value is 184.

And the “#S number of sensitive seedlings” value ([1]; T3 seed ID 12-1-1, pCab-SU111)?
Its value is 0.

What about the “% R percent” value ([1]; T3 seed ID 12-1-1, pCab-SU111) of the same molecule?
Its value is 100%.

And the “#R number of resistant seedlings” value ([1]; T3 seed ID 12-1-2, pCab-SU111)?
Its value is 191.

What about the “#S number of sensitive seedlings” value ([1]; T3 seed ID 12-1-2, pCab-SU111) of the same molecule?
Its value is 0.

And the “% R percent” value ([1]; T3 seed ID 12-1-2, pCab-SU111)?
The value was 100%.

And the “#R number of resistant seedlings” value ([1]; T3 seed ID 12-1-3, pCab-SU111)?
Its value is 136.

And the “#S number of sensitive seedlings” value ([1]; T3 seed ID 12-1-3, pCab-SU111)?
The value was 41.

And the “% R percent” value ([1]; T3 seed ID 12-1-3, pCab-SU111)?
Its value is 77%.

What about the “#R number of resistant seedlings” value ([1]; T3 seed ID 12-1-4, pCab-SU111) of the same molecule?
The value was 98.

And the “#S number of sensitive seedlings” value ([1]; T3 seed ID 12-1-4, pCab-SU111)?
Its value is 39.

And the “% R percent” value ([1]; T3 seed ID 12-1-4, pCab-SU111)?
The value was 72%.

And the “#R number of resistant seedlings” value ([1]; T3 seed ID 12-1-5, pCab-SU111)?
Its value is 161.

What about the “#S number of sensitive seedlings” value ([1]; T3 seed ID 12-1-5, pCab-SU111) of the same molecule?
Its value is 56.

What about the “% R percent” value ([1]; T3 seed ID 12-1-5, pCab-SU111) of the same molecule?
Its value is 74%.

And the “#R number of resistant seedlings” value ([1]; T3 seed ID 12-1-6, pCab-SU111)?
Its value is 254.

And the “#S number of sensitive seedlings” value ([1]; T3 seed ID 12-1-6, pCab-SU111)?
The value was 75.

What about the “% R percent” value ([1]; T3 seed ID 12-1-6, pCab-SU111) of the same molecule?
Its value is 77%.

And the “#R number of resistant seedlings” value ([1]; WT)?
Its value is 0.

What about the “#S number of sensitive seedlings” value ([1]; WT) of the same molecule?
The value was 77.

What about the “% R percent” value ([1]; WT) of the same molecule?
The value was 0%.

And the “Kanamycin Resistant (plants demonstrating result/total plants)” value ([2]; AGS502 (Control))?
The value was 6/9.

And the “Kanamycin Resistant (plants demonstrating result/total plants)” value ([2]; SuFe21.2)?
The value was 7/10.

What about the “Kanamycin Resistant (plants demonstrating result/total plants)” value ([2]; SuFe21.5) of the same molecule?
Its value is 8/10.

And the “Kanamycin Resistant (plants demonstrating result/total plants)” value ([2]; SuFe21.6)?
Its value is 9/10.

And the “Kanamycin Resistant (plants demonstrating result/total plants)” value ([2]; SuFe21.7)?
Its value is 7/10.

And the “Kanamycin Resistant (plants demonstrating result/total plants)” value ([2]; SuFe21.8)?
Its value is 8/9.

And the “Kanamycin Resistant (plants demonstrating result/total plants)” value ([2]; SuFell.1)?
Its value is 7/9.

What about the “Kanamycin Resistant (plants demonstrating result/total plants)” value ([2]; SuFell.11) of the same molecule?
Its value is 7/8.

What about the “Kanamycin Resistant (plants demonstrating result/total plants)” value ([2]; SuFell.3) of the same molecule?
The value was 5/10.

And the “Kanamycin Resistant (plants demonstrating result/total plants)” value ([2]; SuFell.4)?
Its value is 7/10.

And the “Kanamycin Resistant (plants demonstrating result/total plants)” value ([2]; SuFell.7)?
Its value is 9/10.

What about the “Kanamycin Resistant (plants demonstrating result/total plants)” value ([2]; SuFell.8) of the same molecule?
The value was 10/10.
